For series [1], the system named is NCI-H292 cells. Put plainly: Cell growth inhibition (resazurin, 48 hours), NCI-H292. It counts as cell-based, human.
The test system of series [2] is LeTx-induced cytotoxicity of RAW264.7 cells. Put plainly: cells. As to conditions: Mus musculus.
The test system of series [3] is HT-29 cells. Put plainly: Cell growth inhibition (resazurin, 48 hours), HT-29. It counts as cell-based. As to conditions: Homo sapiens. On the technique in general: The colour change of resazurin is a common sign of viable cells or microbes.
Series [4] concerns U266 cells. Nature of the series: Cell growth inhibition (resazurin, 48 hours), U266.
For series [5], the target named is PGPH (caspase-like) activity of rabbit muscle 20S proteasomes (Oryctolagus cuniculus, UniProt A0A5F9DQW2). Nature of the series: Inhibition of caspase-like (PGPH) activity of 20S proteasome (Z-LLE-AMC). It counts as biochemical. The conditions noted are these: Table 3; mean EC50; purified rabbit 20S proteasomes. On the procedure:
A commercially available fluorogenic substrate specific for the PGPH activity was used instead of the chymotrypsin substrate supplied in the proteasome assay kit described above.
The substrate Z-LLE-AMC was prepared as a 20 mM stock solution in DMSO, stored at −20° C. The source of the proteasomes was the commercially available kit from Calbiochem (Cat. #539158). As with the chymotrypsin substrate, the proteasome can cleave Z-LLE-AMC into Z-LLE and free AMC. The activity can then be determined by measuring the fluorescence of the released AMC (λex=390 nm and λem=460 nm). The proteasomes were activated with SDS and held on ice as per manufacturer's recommendation. […] The series was diluted 20-fold with assay buffer and preincubated with the proteasomes as described for the chymotrypsin-like activity. After addition of substrate, the samples were incubated at 37° C., and release of the fluorescent AMC was monitored in a fluorimeter. All data were collected and plotted as the mean of triplicate points. […] As before, the model chosen was a sigmoidal dose-response, with a variable slope.

For series [6], the target named is T1, trypsin-like activity of purified rabbit 20S proteasomes (Oryctolagus cuniculus, UniProt G1SWK8).
T1 sequence (G1SWK8 1-271): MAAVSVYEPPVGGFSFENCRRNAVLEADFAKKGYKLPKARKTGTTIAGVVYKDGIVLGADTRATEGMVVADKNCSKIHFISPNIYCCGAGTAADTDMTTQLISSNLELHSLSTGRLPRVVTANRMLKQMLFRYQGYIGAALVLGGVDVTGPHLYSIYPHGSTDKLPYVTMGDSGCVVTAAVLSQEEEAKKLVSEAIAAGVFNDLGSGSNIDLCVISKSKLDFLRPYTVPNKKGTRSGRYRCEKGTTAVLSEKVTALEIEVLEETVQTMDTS
The conditions noted are these: under the conditions tested.

Series [7] deals with RPMI 8226 cells. Nature of the series: Cell growth inhibition (resazurin, 48 hours), RPMI 8226.
Series [8] in a line: LogD7.4 determination. As to conditions: pH 7.4. The text has this: (§1) These studies consisted of solubility assessment, LogD^7.4 determination and a preliminary screen to detect cytochrome P450 enzyme inhibition.
For series [9], the system named is LeTx-induced cytotoxicity of RAW264.7 cells.
In series [10] the test system is p21 and p27 in HEK293 cells and HEK293 NF-κB/Luciferase reporter clone. Nature of the series: Western blot of cell cycle regulatory proteins p21 and p27. It is filed as cell-based, human. As to conditions: various concentrations, preliminary results. The source says:
The ubiquitin-proteasome pathway is an essential proteolytic system involved in cell cycle control by regulating the degradation of cyclins and cyclin-dependent kinase (Cdk) inhibitors such as p21 and p27. Pagano, et al., Science 269:682 (1995), Kisselev, et al., Chem Biol 8:739 (2001), King, et al., Science 274:1652 (1996). Furthermore, p21 and p27 protein levels are increased in the presence of proteasome inhibitors. Fukuchi, et al., Biochim Biophys Acta 1451:206 (1999), Takeuchi, et al., Jpn J Cancer Res 93:774 (2002).
The Western blots presented in FIG. 33 were reprobed using antibodies against p21 and p27 to determine the endogenous level of each protein and anti-Tubulin antibody was used to confirm equal loading of protein.

Series [11] addresses CYP3A4 (Homo sapiens, UniProt P08684). Nature of the series: Preliminary P450 inhibition screen, CYP3A4.
Source text: as §1

For series [12], the system named is SK-MEL-28 melanoma cells. Nature of the series: NCI screen, SK-MEL-28. It is filed as cell-based. The conditions noted are these: Homo sapiens, SK-MEL-28, read-out: LC50. On the procedure: A detailed description of the screening procedure can be found at hypertext transfer protocol (http://) “dtp.nci.nih.gov/branches/btb/ivclsp.html.”
In brief, each of the 60 human tumor cell lines were grown in RPMI 1640 medium, supplemented with 5% fetal bovine serum and 2 mM L-glutamine. Cells were plated at their appropriate density in 96-well microtiter plates and incubated at 37° C., 5% CO2, 95% air and 100% relative humidity. […] Cells were incubated for an additional 48 hours and a sulforhodamine B protein assay was used to estimate cell viability or growth.

The nature of series [13]: Solubility assessment. As to conditions: PBS, pH 7.4, aqueous buffer.
Source text: as §1

A short description of series [14]: in vitro. The conditions noted are these: mouse.
Series [15] deals with chymotrypsin-like activity of human erythrocyte 20S proteasomes (Homo sapiens, UniProt P28074). Put plainly: biochemical. As to conditions: EC50, chymotrypsin-like activity of human erythrocyte 20S proteasomes, separate lots of proteasomes. On the procedure: The substrate, suc-LLVY-AMC, was prepared as a 20 mM solution in DMSO and stored at −20° C. Human erythrocyte 20S proteasomes were obtained from BIOMOL (Cat. # SE-221). The proteasome can cleave suc-LLVY-AMC into suc-LLVY and free AMC and the activity can then be determined by measuring the fluorescence of the released AMC (λex=390 nm and λem=460 nm ). The proteasomes were activated by SDS and stored on ice as with the experiments using rabbit muscle proteasomes. […] The series was then diluted 20-fold with assay buffer and pre-incubated with proteasomes at 37° C. The reaction was initiated with substrate, and the release of AMC was followed in a Fluoroskan microplate fluorimeter. Data were collected and plotted as the mean of triplicate points.

The target of series [16] is CYP2D6 (Homo sapiens, UniProt P10635). Nature of the series: Preliminary P450 inhibition screen, CYP2D6.
CYP2D6, sequence (P10635 whole entry): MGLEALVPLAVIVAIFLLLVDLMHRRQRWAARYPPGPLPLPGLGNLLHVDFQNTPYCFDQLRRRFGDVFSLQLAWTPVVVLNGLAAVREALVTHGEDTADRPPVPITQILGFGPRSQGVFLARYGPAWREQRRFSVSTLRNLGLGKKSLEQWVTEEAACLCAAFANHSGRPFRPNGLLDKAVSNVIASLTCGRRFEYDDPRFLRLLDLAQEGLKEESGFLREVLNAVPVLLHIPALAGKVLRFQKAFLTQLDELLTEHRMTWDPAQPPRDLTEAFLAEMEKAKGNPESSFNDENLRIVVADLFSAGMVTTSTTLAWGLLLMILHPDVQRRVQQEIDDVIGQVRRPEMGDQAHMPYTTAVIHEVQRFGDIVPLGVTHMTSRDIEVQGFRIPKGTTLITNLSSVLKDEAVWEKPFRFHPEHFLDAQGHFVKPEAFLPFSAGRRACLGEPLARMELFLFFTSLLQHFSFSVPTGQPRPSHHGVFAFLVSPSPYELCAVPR
Source text: as §1

Setting [17] is: Homo sapiens, NCI-H292, Table 13, NCI-H292.
The mark [18] stands for this setting: RAW264.7, read-out: EC50 (nM), inhibition of RAW 264.7 cell cytotoxicity mediated by anthrax lethal toxin.
Where [19] appears, read: Homo sapiens, U-266, Table 13, U266.
[20] abbreviates: Homo sapiens, U-266, read-out: U266 EC50 (nM), Table 15, mean EC50.
[21] abbreviates: Homo sapiens, RPMI-8226, Table 13, RPMI 8226.
Setting [22] is: Homo sapiens, RPMI-8226, read-out: RPMI 8226 EC50 (nM), Table 15, mean EC50.

The text below walks through data of US20050049294A1, “Methods of using [3.2.0] heterocyclic compounds and analogs thereof” (priority 2003, published 2005).

Values joined by “and” are separate entries in the source; they are usually repeats but may differ in a detail not shown here. Identical values can stand only once. Like-named read-outs stand apart in the source and are kept apart here.

For orientation: EC50 means the midpoint of the concentration-response curve. As usually defined, the inhibition is the percentage by which the read-out fell short of the control. Read a high inhibition as a response far below the control. Usually solubility stands for the concentration that dissolves in the medium under given conditions. Higher therefore signals a readily soluble substance. As a reminder, the viability is the share of living cells, or the viability signal relative to a control.

PGPH (caspase-like) activity of rabbit muscle 20S proteasomes, sequence (A0A5F9DQW2 1-212): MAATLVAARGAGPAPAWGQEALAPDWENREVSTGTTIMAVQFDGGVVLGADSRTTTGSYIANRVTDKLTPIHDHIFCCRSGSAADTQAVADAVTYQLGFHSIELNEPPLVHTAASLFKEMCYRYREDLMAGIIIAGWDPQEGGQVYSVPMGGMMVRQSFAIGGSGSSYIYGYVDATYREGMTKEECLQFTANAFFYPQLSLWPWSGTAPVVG
CYP3A4, sequence (P08684 whole entry): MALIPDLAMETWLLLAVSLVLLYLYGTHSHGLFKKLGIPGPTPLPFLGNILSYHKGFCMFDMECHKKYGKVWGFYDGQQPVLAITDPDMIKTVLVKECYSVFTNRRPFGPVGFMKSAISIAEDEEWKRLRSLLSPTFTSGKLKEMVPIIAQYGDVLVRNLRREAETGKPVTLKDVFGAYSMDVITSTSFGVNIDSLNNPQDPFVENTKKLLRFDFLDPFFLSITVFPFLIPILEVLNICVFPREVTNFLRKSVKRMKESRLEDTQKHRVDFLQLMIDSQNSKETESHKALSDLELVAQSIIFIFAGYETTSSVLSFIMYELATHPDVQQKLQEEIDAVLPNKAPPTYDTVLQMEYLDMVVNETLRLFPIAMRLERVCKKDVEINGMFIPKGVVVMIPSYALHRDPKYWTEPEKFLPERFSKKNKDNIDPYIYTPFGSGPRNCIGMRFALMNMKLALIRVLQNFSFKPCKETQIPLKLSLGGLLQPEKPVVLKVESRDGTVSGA

Take `C[C@@]12OC(=O)[C@]1([C@@H](O)C1CCCCC1)NC(=O)[C@@H]2CCCl` [Formula II-2]: the 50% effective concentration (EC50) in series [1] (setting [17]) came to 322 nM; in [2] (setting [18]), 14 nM; in series [3] (HT-29) it was 129 ± 21 nM; in series [4] (setting [19]), 32 nM; in [4] (setting [20]), 36 nM; in [5], 1500 nM. Besides, the EC50 was determined as 49 nM in [7] (setting [21]); 47 nM in series [7] (setting [22]); 45 nM in [7] (Table 13, RPMI 8226). Besides, in [6], the “inhibit the trypsin-like activity of the 20S proteasome” value (“inhibit the trypsin-like activity” below) is “able to inhibit”.
Turning to `C[C@@]12OC(=O)[C@]1([C@@H](O)C1CCCCC1)NC(=O)[C@@H]2CCBr` [Formula II-4], the concentration for a half-maximal effect (EC50) came out at 192 nM in series [1] (setting [17]); 14 nM in [2] (setting [18]); 132 ± 36 nM in series [3] (Table 13, HT-29, read-out: EC50); 39 nM in series [4] (setting [19]); 36 nM in series [4] (setting [20]); 34 nM in [4] (Table 13, U266). Further, the results for the 50% effective concentration (EC50) in [7] (setting [21]) and in series [7] (setting [22]) were 57 nM and 54 nM, respectively. Besides, the “inhibit the trypsin-like activity” value in [6] is reported as “able to inhibit”.
For `C[C@@]12OC(=O)[C@]1([C@@H](O)[C@@H]1C=CCCC1)NC(=O)[C@@H]2CCCl` [Formula II-16, Salinosporamide A], the concentration for a half-maximal effect (EC50) in series [1] (Homo sapiens, NCI-H292, 48 h) is 97 nM; in series [1] (Homo sapiens, NCI-H292, 48 h, read-out: EC50 (nM), mean ± SD) it was 66 ± 29 nM; in [2] (RAW264.7, read-out: average EC50, viability of LeTx-treated cells) it was less than 4 nM; in series [3] (HT-29, 48 h) it was 47 nM; in series [3] (HT-29, 48 h, read-out: EC50 (nM), mean ± SD), 40 ± 26 nM; in series [9] (read-out: average EC50, viability of LeTx-treated cells), 3.6 nM. Further, the EC50 in [4] (Homo sapiens, U-266, 48 h, read-out: EC50 (nM), mean ± SD) was 4.7 ± 0.7 nM; in series [4] (Homo sapiens, U-266, read-out: U266 EC50 (nM)) it was 4.1 nM; in series [15] it was ~0.25 nM and 0.045 to 0.247 nM and 0.045 to 0.25 nM; in series [7] (Homo sapiens, RPMI-8226, 48 h, read-out: EC50 (nM), mean ± SD) it was 8.6 ± 1.9 nM; in [7] (Homo sapiens, RPMI-8226, read-out: EC50 (nM), mean ± SD), 10 ± 3 nM. The LogD7.4 in series [8] turned out to be 2.4. Moreover, in series [9], the “cell-viability, compound + LeTx” value is recorded as 82%. The “increase in the viability of LeTx-treated cells compared to LeTx treatment alone” value in series [9] was 10 fold. Also, the “p21 and p27 protein levels” value in [10] was “elevated”. Besides, the inhibition at 10 µM was 6% in series [11] and 19% in [16]. Further, the CC50 in series [12] was less than 10 nM. Further, the solubility in [13] is 9.6 µM and 3 µg/mL. In series [14], this molecule yielded a viability at […] of 96%. Further, in series [6], the “inhibit the trypsin-like activity” value is given as “able to inhibit”. Moreover, the “% cytotoxicity, mean ± SD” value in series [7] (Table 6, RPMI 8226 (n = 5)) is 94 ± 1%; in series [7] (Table 9, RPMI 8226, 48 hour), 94 ± 0%.
Take `C[C@@]12OC(=O)[C@]1([C@@H](O)[C@@H]1C=CCCC1)NC(=O)[C@@H]2CCBr` [Formula II-18]: the EC50 stood at 29 nM in series [1] (setting [17]); 41 nM in series [1] (Table 13, NCI-H292); 4 nM in series [2] (setting [18]); 18 ± 7.8 nM in [3] (HT-29); 4.2 nM in series [4] (setting [19]); 4.2 nM in series [4] (setting [20]). Moreover, the EC50 in series [5] was found to be 250 nM; in series [7] (Homo sapiens, RPMI-8226, 48 h, read-out: EC50, μM (mean ± SD), Table 9, RPMI 8226, 48 hour) it was 17 nM; in series [7] (setting [21]) it was 6.3 nM; in series [7] (setting [22]), 6.3 nM; in series [7] (read-out: EC50, μM (mean ± SD), Table 9, RPMI 8226, 48 hour), 22 nM. For the same molecule, the “inhibit the trypsin-like activity” value in [6] is reported as “able to inhibit”. For the same molecule, the “% cytotoxicity, mean ± SD” value in series [7] (Table 9, RPMI 8226, 48 hour) is 94, 94%.
